# From ChEMBL document CHEMBL2424622, “Development of amino-pyrimidine inhibitors of c-Jun N-terminal kinase (JNK): kinase profiling guided optimization of a 1,2,3-benzotriazole lead” (Bioorg Med Chem Lett, 2013)
# Key:
# [1] = biological target: Mitogen-activated protein kinase kinase kinase 20 (Homo sapiens) (UniProt Q9NYL2); experiment: Competitive binding affinity to ZAK (unknown origin) at 10 uM in presence of ATP relative to control
# [2] = biological target: T1, Serine/threonine-protein kinase 17A (Homo sapiens) (UniProt Q9UEE5); experiment: Competitive binding affinity to DRAK1 (unknown origin) at 10 uM in presence of ATP relative to control
# T1 sequence (whole entry): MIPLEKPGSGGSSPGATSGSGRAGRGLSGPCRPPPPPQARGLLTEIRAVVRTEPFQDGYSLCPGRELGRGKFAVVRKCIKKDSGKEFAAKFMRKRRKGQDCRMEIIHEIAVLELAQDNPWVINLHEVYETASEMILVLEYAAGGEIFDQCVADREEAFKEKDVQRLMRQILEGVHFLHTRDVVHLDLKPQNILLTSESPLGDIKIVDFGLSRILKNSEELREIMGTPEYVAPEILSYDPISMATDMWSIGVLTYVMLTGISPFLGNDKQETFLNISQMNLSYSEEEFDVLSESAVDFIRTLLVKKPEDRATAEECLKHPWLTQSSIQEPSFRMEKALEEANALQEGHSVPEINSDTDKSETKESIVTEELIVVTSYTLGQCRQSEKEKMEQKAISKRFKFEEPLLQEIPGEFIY
# [3] = biological target: Bone morphogenetic protein receptor type-1A (Homo sapiens) (UniProt P36894); experiment: Competitive binding affinity to BMPR1A (unknown origin) at 10 uM in presence of ATP relative to control
# [4] = biological target: MAP kinase-interacting serine/threonine-protein kinase 1 (Homo sapiens, UniProt Q9BUB5); experiment: Competitive binding affinity to MKNK1 (unknown origin) at 10 uM in presence of ATP relative to control
# [5] = biological target: T2, Activin receptor type-1B (Homo sapiens) (UniProt P36896); experiment: Competitive binding affinity to ACVR1B (unknown origin) at 10 uM in presence of ATP relative to control
# T2 sequence (whole entry): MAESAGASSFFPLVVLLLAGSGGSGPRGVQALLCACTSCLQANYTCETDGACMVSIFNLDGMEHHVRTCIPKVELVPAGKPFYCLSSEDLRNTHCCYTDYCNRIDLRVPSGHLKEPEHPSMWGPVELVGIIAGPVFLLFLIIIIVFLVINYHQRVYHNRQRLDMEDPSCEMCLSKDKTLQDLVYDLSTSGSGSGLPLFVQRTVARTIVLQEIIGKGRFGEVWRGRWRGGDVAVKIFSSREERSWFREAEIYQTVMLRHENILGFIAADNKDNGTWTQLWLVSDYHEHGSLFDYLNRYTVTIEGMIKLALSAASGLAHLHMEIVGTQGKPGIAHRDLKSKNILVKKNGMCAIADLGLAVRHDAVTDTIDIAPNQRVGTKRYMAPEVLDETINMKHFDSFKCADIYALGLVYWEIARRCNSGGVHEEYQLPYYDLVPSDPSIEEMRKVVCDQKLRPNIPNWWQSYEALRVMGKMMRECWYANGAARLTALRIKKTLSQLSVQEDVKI
# [6] = biological target: Proto-oncogene tyrosine-protein kinase receptor Ret (Homo sapiens) (UniProt P07949); experiment: Competitive binding affinity to RET (unknown origin) at 10 uM in presence of ATP relative to control
# [7] = test system: Mast/stem cell growth factor receptor Kit (Homo sapiens), P10721 [V559D]; experiment: Competitive binding affinity to KIT V559D mutant (unknown origin) at 10 uM in presence of ATP relative to control
# [8] = biological target: T3, MAP kinase-activated protein kinase 5 (Homo sapiens) (UniProt Q8IW41); experiment: Competitive binding affinity to MAPKAPK5 (unknown origin) at 10 uM in presence of ATP relative to control
# T3 sequence (whole entry): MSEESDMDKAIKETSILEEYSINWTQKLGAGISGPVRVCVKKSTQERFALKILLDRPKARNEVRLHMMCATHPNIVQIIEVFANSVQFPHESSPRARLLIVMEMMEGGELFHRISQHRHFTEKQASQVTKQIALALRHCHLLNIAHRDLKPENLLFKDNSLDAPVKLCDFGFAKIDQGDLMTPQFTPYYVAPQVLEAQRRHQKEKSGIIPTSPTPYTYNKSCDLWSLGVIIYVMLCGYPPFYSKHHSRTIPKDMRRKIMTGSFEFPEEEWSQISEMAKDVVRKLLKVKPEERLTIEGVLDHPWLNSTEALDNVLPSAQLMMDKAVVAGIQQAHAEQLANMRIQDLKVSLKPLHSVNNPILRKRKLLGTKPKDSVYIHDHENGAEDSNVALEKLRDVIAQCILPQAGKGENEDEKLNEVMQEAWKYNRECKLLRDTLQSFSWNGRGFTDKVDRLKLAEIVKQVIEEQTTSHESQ
# Mast/stem cell growth factor receptor Kit (Homo sapiens), P10721 [V559D], sequence (P10721 whole entry V559D): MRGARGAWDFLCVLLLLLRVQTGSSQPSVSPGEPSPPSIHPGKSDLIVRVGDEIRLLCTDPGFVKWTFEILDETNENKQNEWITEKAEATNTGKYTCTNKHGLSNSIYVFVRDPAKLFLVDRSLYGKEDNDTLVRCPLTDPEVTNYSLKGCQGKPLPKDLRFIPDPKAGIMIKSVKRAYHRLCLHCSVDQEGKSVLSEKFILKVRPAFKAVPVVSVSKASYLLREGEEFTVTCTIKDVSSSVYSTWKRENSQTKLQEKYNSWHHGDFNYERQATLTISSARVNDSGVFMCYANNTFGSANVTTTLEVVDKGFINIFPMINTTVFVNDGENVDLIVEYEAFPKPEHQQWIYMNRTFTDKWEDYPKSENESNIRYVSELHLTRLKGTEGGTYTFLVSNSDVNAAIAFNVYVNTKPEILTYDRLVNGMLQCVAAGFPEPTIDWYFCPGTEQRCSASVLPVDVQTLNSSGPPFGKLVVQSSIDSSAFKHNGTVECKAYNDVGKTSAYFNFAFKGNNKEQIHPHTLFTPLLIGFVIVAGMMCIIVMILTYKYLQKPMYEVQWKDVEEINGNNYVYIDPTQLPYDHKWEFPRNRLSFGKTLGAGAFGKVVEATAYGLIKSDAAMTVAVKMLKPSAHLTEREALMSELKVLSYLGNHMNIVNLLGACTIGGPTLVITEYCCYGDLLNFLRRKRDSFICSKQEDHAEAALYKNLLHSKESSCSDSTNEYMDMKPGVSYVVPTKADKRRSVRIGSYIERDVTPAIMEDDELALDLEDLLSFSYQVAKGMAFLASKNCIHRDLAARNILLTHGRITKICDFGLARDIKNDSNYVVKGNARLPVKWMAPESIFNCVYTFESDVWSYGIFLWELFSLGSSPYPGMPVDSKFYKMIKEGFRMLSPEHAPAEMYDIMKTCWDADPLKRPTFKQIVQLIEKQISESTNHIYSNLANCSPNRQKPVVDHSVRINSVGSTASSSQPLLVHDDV
# Bone morphogenetic protein receptor type-1A (Homo sapiens), sequence (P36894 whole entry): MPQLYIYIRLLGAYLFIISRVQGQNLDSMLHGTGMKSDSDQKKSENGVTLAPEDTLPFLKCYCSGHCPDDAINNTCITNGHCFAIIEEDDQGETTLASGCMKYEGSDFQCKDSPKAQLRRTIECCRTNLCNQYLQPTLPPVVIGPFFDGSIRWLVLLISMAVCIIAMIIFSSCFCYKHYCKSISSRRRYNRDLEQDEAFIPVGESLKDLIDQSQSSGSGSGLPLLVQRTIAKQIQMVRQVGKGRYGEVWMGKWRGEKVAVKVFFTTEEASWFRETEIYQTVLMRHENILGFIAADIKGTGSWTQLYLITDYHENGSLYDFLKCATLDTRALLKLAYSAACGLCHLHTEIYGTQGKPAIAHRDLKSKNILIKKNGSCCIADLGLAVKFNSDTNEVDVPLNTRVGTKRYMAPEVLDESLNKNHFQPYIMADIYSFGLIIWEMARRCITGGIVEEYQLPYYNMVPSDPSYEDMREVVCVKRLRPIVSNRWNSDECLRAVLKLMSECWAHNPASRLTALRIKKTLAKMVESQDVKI
# Proto-oncogene tyrosine-protein kinase receptor Ret (Homo sapiens), sequence (P07949 whole entry): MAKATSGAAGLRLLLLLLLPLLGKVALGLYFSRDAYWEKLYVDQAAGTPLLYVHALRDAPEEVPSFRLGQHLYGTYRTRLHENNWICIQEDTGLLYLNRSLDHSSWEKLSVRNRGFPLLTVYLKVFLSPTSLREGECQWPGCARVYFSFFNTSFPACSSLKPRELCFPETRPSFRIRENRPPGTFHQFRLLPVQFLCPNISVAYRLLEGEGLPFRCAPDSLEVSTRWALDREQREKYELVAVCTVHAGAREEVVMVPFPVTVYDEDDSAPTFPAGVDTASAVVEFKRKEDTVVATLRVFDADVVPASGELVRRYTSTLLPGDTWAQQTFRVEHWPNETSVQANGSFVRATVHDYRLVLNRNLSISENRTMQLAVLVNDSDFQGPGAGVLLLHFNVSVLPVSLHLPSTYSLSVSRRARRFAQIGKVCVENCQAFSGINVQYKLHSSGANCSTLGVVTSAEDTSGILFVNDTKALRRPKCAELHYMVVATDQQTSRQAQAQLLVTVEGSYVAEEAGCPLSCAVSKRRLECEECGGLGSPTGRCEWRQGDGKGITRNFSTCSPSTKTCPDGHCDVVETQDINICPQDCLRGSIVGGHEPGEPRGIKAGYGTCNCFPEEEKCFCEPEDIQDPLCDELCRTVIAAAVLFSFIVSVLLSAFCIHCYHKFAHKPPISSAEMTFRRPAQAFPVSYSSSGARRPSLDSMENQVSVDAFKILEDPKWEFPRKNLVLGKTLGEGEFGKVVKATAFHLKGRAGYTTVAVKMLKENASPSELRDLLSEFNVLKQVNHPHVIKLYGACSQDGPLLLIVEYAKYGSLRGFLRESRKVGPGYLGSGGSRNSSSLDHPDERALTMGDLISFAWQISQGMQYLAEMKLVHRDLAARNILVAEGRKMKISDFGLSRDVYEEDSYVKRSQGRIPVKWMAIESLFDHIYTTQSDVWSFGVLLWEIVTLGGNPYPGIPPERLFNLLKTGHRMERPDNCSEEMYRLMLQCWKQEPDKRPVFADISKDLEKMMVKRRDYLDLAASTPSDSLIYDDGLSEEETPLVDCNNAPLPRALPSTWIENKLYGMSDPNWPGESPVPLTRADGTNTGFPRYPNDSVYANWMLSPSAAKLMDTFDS
# MAP kinase-interacting serine/threonine-protein kinase 1, sequence (Q9BUB5 whole entry, looked up): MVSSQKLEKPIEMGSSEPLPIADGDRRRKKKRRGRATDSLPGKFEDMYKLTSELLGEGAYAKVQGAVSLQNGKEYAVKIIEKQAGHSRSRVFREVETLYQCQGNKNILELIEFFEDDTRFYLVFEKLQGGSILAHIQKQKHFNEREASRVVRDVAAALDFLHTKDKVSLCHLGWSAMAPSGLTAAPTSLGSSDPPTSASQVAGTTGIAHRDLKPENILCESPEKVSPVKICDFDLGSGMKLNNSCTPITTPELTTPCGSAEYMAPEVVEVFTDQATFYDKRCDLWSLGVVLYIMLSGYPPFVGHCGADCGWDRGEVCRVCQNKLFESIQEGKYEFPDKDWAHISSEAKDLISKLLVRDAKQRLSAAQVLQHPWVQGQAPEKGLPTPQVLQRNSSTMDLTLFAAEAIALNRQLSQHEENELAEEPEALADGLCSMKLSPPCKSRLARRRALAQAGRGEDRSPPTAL
# Mitogen-activated protein kinase kinase kinase 20 (Homo sapiens), sequence (Q9NYL2 2-800 limits assumed): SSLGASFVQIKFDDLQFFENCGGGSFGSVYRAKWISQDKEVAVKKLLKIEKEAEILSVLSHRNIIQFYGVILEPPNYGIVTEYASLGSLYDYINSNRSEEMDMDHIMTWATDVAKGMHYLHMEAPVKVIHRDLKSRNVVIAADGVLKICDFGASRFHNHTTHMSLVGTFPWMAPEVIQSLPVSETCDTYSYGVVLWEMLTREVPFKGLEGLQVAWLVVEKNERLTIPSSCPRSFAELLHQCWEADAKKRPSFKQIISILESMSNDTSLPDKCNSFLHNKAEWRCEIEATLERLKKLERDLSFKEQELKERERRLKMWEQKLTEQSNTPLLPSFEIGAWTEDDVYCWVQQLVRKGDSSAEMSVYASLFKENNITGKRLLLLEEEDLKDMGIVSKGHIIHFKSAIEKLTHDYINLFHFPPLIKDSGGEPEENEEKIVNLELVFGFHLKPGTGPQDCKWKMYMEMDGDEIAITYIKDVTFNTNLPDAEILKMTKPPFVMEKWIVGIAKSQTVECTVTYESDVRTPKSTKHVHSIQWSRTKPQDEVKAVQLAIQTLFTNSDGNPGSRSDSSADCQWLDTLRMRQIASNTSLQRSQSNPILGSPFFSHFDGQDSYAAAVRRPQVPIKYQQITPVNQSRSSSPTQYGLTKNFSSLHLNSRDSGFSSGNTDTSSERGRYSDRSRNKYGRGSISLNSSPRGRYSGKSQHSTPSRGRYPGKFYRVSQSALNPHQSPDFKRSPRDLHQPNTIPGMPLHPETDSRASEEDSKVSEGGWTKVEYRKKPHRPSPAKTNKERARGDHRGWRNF
SMILES,inhibition [1] [%],inhibition [2] [%],inhibition [3] [%],inhibition [4] [%],inhibition [5] [%],inhibition [6] [%],inhibition [7] [%],inhibition [8] [%]
O[C@H]1CC[C@H](Nc2nccc(-n3nnc4ccccc43)n2)CC1,76,100,< 50,97,< 50,< 50,91,< 50
CS(=O)(=O)CCCOc1cccc2c1ccn2-c1ccnc(N[C@H]2CC[C@H](C(=O)N3CCC(O)CC3)CC2)n1,–,> 85,–,> 85,–,–,–,–
O[C@H]1CC[C@H](Nc2nccc(-n3ncc4ccccc43)n2)CC1,< 50,99,< 50,70,< 50,< 50,92,< 50
O[C@H]1CC[C@H](Nc2nccc(-c3n[nH]c4ccccc34)n2)CC1,–,–,< 50,–,< 50,94,99,–
O[C@H]1CC[C@H](Nc2nccc(-n3ccc4ccccc43)n2)CC1,< 50,98,< 50,< 50,< 50,< 50,73,< 50
